Consider 14 compounds from US20230148599A1, “FUNGICIDAL MIXTURES CONTAINING PYRAZOLE DERIVATIVES” (FMC Corporation, priority 2020, published 2023).

What all share (assay type): in vivo
The test system of one test is Alternaria solani. Put plainly: Test F: tomato early blight, preventive spray on tomato seedlings. The note with it: 120 h, 100 = 100% disease control, 0 = no control, read-out: Test F disease control rating. The text has this:
(§1) General protocol for preparing test suspensions for Tests A-F: the test compounds were first dissolved in acetone in an amount equal to 3% of the final volume and then suspended at the desired concentration (in ppm) in acetone and purified water (50/50 mix by volume) containing 250 ppm of the surfactant PEG400 (polyhydric alcohol esters). The resulting test suspensions were then used in Tests A-F.
The test suspension was sprayed to the point of run-off on tomato seedlings. The following day the seedlings were inoculated with a spore suspension of Alternaria solani (the causal agent of tomato early blight) and incubated in a saturated atmosphere at 27° C. for 48 h, and then moved to a growth chamber at 20° C. for 3 days, after which time visual disease ratings were made.
(§2) A rating of 100 indicates 100% disease control and a rating of 0 indicates no disease control (relative to the controls). A dash (−) indicates the compound was not tested.

In another test the test system is Septoria tritici. Put plainly: Test A: wheat leaf blotch, preventive spray on wheat seedlings. The note with it: Zymoseptoria tritici, 456 h, 100 = 100% disease control, 0 = no control, read-out: Test A disease control rating.
Source text: as §1
The test solution was sprayed to the point of run-off on wheat seedlings. The following day the seedlings were inoculated with a spore suspension of Septoria tritici (the causal agent of wheat leaf blotch) and incubated in a saturated atmosphere at 24° C. for 48 h, and then moved to a growth chamber at 20° C. for 17 days, after which time disease ratings were made.
as §2

The next test deals with Phakopsora pachyrhizi. In words: Test D: Asian soybean rust, preventive spray on soybean seedlings. Conditions: 216 h, 100 = 100% disease control, 0 = no control, read-out: Test D disease control rating.
Source text: as §1
The test solution was sprayed to the point of run-off on soybean seedlings. The following day the seedlings were inoculated with a spore suspension of Phakopsora pachyrhizi (the causal agent of Asian soybean rust) and incubated in a saturated atmosphere at 22° C. for 24 h and then moved to a growth chamber at 22° C. for 8 days, after which time visual disease ratings were made.
as §2

Test [1] relates to Puccinia recondita f. sp. tritici. Put plainly: Test B: wheat leaf rust, preventive spray on wheat seedlings. The note with it: 192 h, 100 = 100% disease control, 0 = no control, read-out: Test B disease control rating.
Source text: as §1
The test solution was sprayed to the point of run-off on wheat seedlings. The following day the seedlings were inoculated with a spore suspension of Puccinia recondita f. sp. tritici (the causal agent of wheat leaf rust) and incubated in a saturated atmosphere at 20° C. for 24 h, and then moved to a growth chamber at 20° C. for 7 days, after which time disease ratings were made.
as §2

The next test has as its system Botrytis cinerea. In words: Test E: tomato Botrytis, preventive spray on tomato seedlings. The note with it: 120 h, 100 = 100% disease control, 0 = no control, read-out: Test E disease control rating.
Source text: as §1
The test suspension was sprayed to the point of run-off on tomato seedlings. The following day the seedlings were inoculated with a spore suspension of Botrytis cinerea (the causal agent of tomato Botrytis) and incubated in a saturated atmosphere at 20° C. for 48 h, and then moved to a growth chamber at 24° C. for 3 days, after which time visual disease ratings were made.
as §2

With `Cc1nn(C)c(Nc2c(F)cccc2[N+](=O)[O-])c1-c1c(F)cc(F)cc1Br` [Compound 1, 4-(2-bromo-4,6-difluorophenyl)-N-(2-fluoro-6-nitrophenyl)-1,3-dimethyl-1H-pyrazol-5-amine], the pest or weed control at 50 ppm with Alternaria solani came out at 99%; in the test with Septoria tritici, 100%; in the test with Phakopsora pachyrhizi it was 84%; in test [1], 100%; in the test on Botrytis cinerea, 100%.
On to `Cc1nn(C)c(Nc2c(F)cccc2[N+](=O)[O-])c1-c1c(F)cc(F)cc1Cl` [Compound 68, 4-(2-chloro-4,6-difluorophenyl)-N-(2-fluoro-6-nitrophenyl)-1,3-dimethyl-1H-pyrazol-5-amine], for which the pest or weed control at 10 ppm with Alternaria solani amounted to 98%; with Septoria tritici, 100%; in the test on Phakopsora pachyrhizi, 32%; in test [1], 100%; in the test on Botrytis cinerea it was 100%. Further, the pest or weed control at 50 ppm in the test on Alternaria solani was 99%; in the test with Septoria tritici it was 100%; in the test on Phakopsora pachyrhizi, 99%; in test [1], 100%; in the test on Botrytis cinerea, 100%.
As to `Cc1nn(C)c(Nc2c(Cl)cc(F)cc2[N+](=O)[O-])c1-c1ccc(C#N)cc1Cl` [Compound 18, 3-chloro-4-[5-[(2-chloro-4-fluoro-6-nitrophenyl)amino]-1,3-dimethyl-1H-pyrazol-4-yl]benzonitrile], the pest or weed control at 50 ppm in the test with Alternaria solani was determined as 99%; in the test on Septoria tritici, 100%; in the test on Phakopsora pachyrhizi, 92%; in test [1] it was 100%; with Botrytis cinerea, 100%.
As for `Cc1nn(C)c(Nc2ccc(F)cc2[N+](=O)[O-])c1-c1ccc(F)cc1Cl` [Compound 111, 4-(2-chloro-4-fluorophenyl)-N-(4-fluoro-2-nitrophenyl)-1,3-dimethyl-1H-pyrazol-5-amine], the pest or weed control at 50 ppm is 93% in the test on Alternaria solani; 100% with Septoria tritici; 0% with Phakopsora pachyrhizi; 99% in test [1]; 100% in the test with Botrytis cinerea.
For `Cc1nn(C)c(Nc2c(F)cc(Br)cc2[N+](=O)[O-])c1-c1ccc(F)cc1Cl` [Compound 61, N-(4-bromo-2-fluoro-6-nitrophenyl)-4-(2-chloro-4-fluorophenyl)-1,3-dimethyl-1H-pyrazol-5-amine], the pest or weed control at 50 ppm with Alternaria solani came to 99%; in the test on Septoria tritici it was 100%; in the test on Phakopsora pachyrhizi, 84%; in test [1], 100%; with Botrytis cinerea, 99%.
Consider `CCc1nn(C)c(Nc2c(F)cccc2[N+](=O)[O-])c1-c1ccc(F)cc1Cl` [Compound 72, 4-(2-chloro-4-fluorophenyl)-N-(2-fluoro-6-nitrophenyl)-3-ethyl-1-methyl-1H-pyrazol-5-amine], for which the pest or weed control at 10 ppm with Alternaria solani came to 63%; with Septoria tritici, 100%; in the test with Phakopsora pachyrhizi, 12%; in test [1] it was 85%; with Botrytis cinerea it was 98%. Besides, the pest or weed control at 50 ppm with Alternaria solani worked out at 99%; in the test with Septoria tritici, 100%; in the test on Phakopsora pachyrhizi, 31%; in test [1], 100%; in the test on Botrytis cinerea, 98%.
On to `Cc1cc(F)c(Nc2c(-c3ccc(C#N)cc3Cl)c(C)nn2C)c([N+](=O)[O-])c1` [Compound 127, 3-chloro-4-[5-[(2-fluoro-4-methyl-6-nitrophenyl)amino]-1,3-dimethyl-1H-pyrazol-4-yl]benzonitrile], for which the pest or weed control at 50 ppm in the test on Alternaria solani amounted to 100%; in the test on Septoria tritici it was 100%; with Phakopsora pachyrhizi, 96%; in test [1] it was 99%; in the test with Botrytis cinerea it was 100%.
For the compound `COc1ccc(-c2c(C)nn(C)c2Nc2c(Cl)cc(F)cc2[N+](=O)[O-])c(Cl)c1` [Compound 73, N-(2-chloro-4-fluoro-6-nitrophenyl)-4-(2-chloro-4-methoxyphenyl)-1,3-dimethyl-1H-pyrazol-5-amine], the pest or weed control at 50 ppm in the test with Alternaria solani worked out at 97%; in the test with Septoria tritici it was 100%; with Phakopsora pachyrhizi, 98%; in test [1], 100%; in the test on Botrytis cinerea, 99%.
On to `Cc1nn(C)c(N(C)c2c(F)cccc2[N+](=O)[O-])c1-c1ccc(F)cc1Cl` [Compound 172], for which the pest or weed control at 50 ppm was 40% in the test with Alternaria solani; 100% with Septoria tritici; 0% in the test with Phakopsora pachyrhizi; 100% in test [1]; 99% in the test on Botrytis cinerea.
In the case of `Cc1nn(C)c(Nc2c(F)cccc2[N+](=O)[O-])c1-c1ccc(C#N)cc1Cl` [Compound 113, 3-chloro-4-[5-[(2-fluoro-6-nitrophenyl)amino]-1,3-dimethyl-1H-pyrazol-4-yl]benzonitrile], the pest or weed control at 50 ppm came to 99% with Alternaria solani; 100% with Septoria tritici; 13% in the test with Phakopsora pachyrhizi; 99% in test [1]; 99% with Botrytis cinerea.
In the case of `Cc1nn(C)c(Nc2c(F)cc(Cl)cc2[N+](=O)[O-])c1-c1ccc(F)cc1Cl` [Compound 121, N-(4-chloro-2-fluoro-6-nitrophenyl)-4-(2-chloro-4-fluorophenyl)-1,3-dimethyl-1H-pyrazol-5-amine], the pest or weed control at 50 ppm in the test with Alternaria solani is 100%; with Septoria tritici, 100%; in the test with Phakopsora pachyrhizi, 99%; in test [1] it was 100%; in the test on Botrytis cinerea it was 100%.
Regarding `COc1cc(F)c(Nc2c(-c3c(F)cccc3Cl)c(C)nn2C)c([N+](=O)[O-])c1` [Compound 23, 4-(2-chloro-6-fluorophenyl)-N-(2-fluoro-4-methoxy-6-nitrophenyl)-1,3-dimethyl-1H-pyrazol-5-amine], the pest or weed control at 50 ppm amounted to 99% with Alternaria solani; 100% with Septoria tritici; 99% in the test with Phakopsora pachyrhizi; 100% in test [1]; 97% in the test on Botrytis cinerea.
`Cc1cc(F)c(Nc2c(-c3ccc(F)cc3Cl)c(C)nn2C)c([N+](=O)[O-])c1` [Compound 93, 4-(2-chloro-4-fluorophenyl)-N-(2-fluoro-4-methyl-6-nitrophenyl)-1,3-dimethyl-1H-pyrazol-5-amine]: the pest or weed control at 10 ppm stood at 99% in the test with Alternaria solani; 99% in the test with Septoria tritici; 87% in the test on Phakopsora pachyrhizi; 100% in test [1]; 99% in the test with Botrytis cinerea. Further, the pest or weed control at 50 ppm in the test on Alternaria solani was found to be 99%; in the test on Septoria tritici, 100%; with Phakopsora pachyrhizi, 100%; in test [1], 100%; in the test with Botrytis cinerea it was 100%.
As to `Cc1nn(C)c(Nc2c(F)cccc2[N+](=O)[O-])c1-c1ccc(F)cc1Br` [Compound 60, 4-(2-bromo-4-fluorophenyl)-N-(2-fluoro-6-nitrophenyl)-1,3-dimethyl-1H-pyrazol-5-amine], the pest or weed control at 10 ppm in the test with Alternaria solani turned out to be 75%; with Septoria tritici it was 99%; in the test on Phakopsora pachyrhizi it was 0%; in test [1] it was 100%; with Botrytis cinerea, 99%. Also, the pest or weed control at 50 ppm in the test on Alternaria solani stood at 99%; in the test with Septoria tritici it was 100%; in the test with Phakopsora pachyrhizi it was 97%; in test [1], 100%; with Botrytis cinerea, 99%.
